Measured values: patent US9079863B2, “Crystalline forms for 5-amino-2,3-dihydrophthalazine-1,4-dione sodium salt, pharmaceutical preparations containing the same and method for the production of said forms” (METRIOPHARM AG, priority 2010, dated 2015)
Structures can show the parent of a compound that is named as a salt. Where two headings read alike, the source gives them in different places.

Key:
[1] = tested on: isolated mouse macrophages
Protocol: For this purpose, the macrophages were first treated with form I (20 or 200 μg/mL). After 1 hour the treated macrophages were stimulated with LPS (10, 100 or 1,000 ng/mL). The supernatants were collected 24 h later, and the concentration of TNF-alpha and IL-6 was measured. Not stimulated macrophages, not stimulated macrophages treated with 200 μg/mL form I and LPS-stimulated macrophages (10, 100 or 1,000 ng/mL LPS) were used as controls.

[2] = healthy mice, end of the second application day
Source text: When administering form I and form II to healthy mice, it was investigated, whether and which influence the application has on certain liver enzymes, in particular the transaminases GOT (AST) and GPT (ALT). Blood taking occurred at the end of the second application day.

S. pyogenes [3] = conditions: for Weight development/increase Total MW / Weight development/increase Day 1 MW: infected mice, sodium salt; for Weight development/increase Total MW: complete test time 48 h, survivors
Protocol: (§1) In a mouse model of the Gram-positive sepsis (infection with S. pyogenes) the therapeutic usability of the crystal forms I and II of the 5-amino-2,3-dihydrophthalazine-1,4-dione sodium salt was tested. The administration of active ingredient was made parenterally 6 hours after the infection occurred. A second administration of active ingredient was made 24 hours after the first application. The test was completed 48 hours after the infection. For both forms (substance groups) three different doses were used. The mice obtained 2, 20 or 200 μg each of form I or form II per animal and application.
(§2) The individual treatment groups comprised 5 animals each, and for the not infected controls two repetitions and for the infected controls and that groups that contained form II four repetitions were made, so that in total 180 animals were in the test.
In the sepsis model described in Example 3, the influence of crystal forms I and II of the 5-amino-2,3-dihydrophthalazine-1,4-dione sodium salt on the weight development of mice infected with S. pyogenes was tested. The development of the body weight during an acute infection may supply important predictive information.

S. pyogenes [4] = conditions: 48 hours after the infection
Protocol: as §1, §2
In the sepsis model described in Example 3, the influence the crystal forms II and I of the 5-amino-2,3-dihydrophthalazine-1,4-dione sodium, salt on the probability of survival of the mice infected with S. pyogenes was tested.

[5] = healthy mice
Protocol: as §1
Blood taking occurred after 48 hours at the end of the second application day.

[6] = for Disintegration temperature: 30-500° C. in synthetic air (4 N2: 1 O2); for Disintegration temperature / Endothermous solid phase transformation: sodium salt; for Endothermous solid phase transformation: 30-300° C. under helium
Protocol: (Table 5). The solid phase transformation of the dihydrate according to U.S. Pat. No. 6,483,326 B1 was measured by means of the simultaneous thermogravimetry-differential thermal analysis with a Linseis L81-077 coupled with mass spectroscopy measurement with a Netzsch STA 449 C thermobalance, with MS and FTIR coupling at 30-300° C. under helium. The disintegration temperatures of forms I-II were determined with the same device at 30-500° C. in synthetic air (4 N2: 1 O2). The data were analyzed with the factory-set software Proteus.

physchem = conditions: in water at room temperature, saturated solution
Protocol: Further, the solubility of the crystalline forms in a saturated solution was determined.

[7] = not infected mice; for Weight development/increase MW: over two days
Protocol: as §1, §2
It is known that the toxicity of substances in an animal test with growing-up mice or rate can influence the weight development.

S. pyogenes [8] = conditions: for Germ load (CFU) Blood MW / Germ load (CFU) Liver MW: 48 hours after the infection, sodium salt
Protocol: as §1, §2
In the sepsis model described in Example 3, the influence of crystal forms II and I of the 5-amino-2,3-dihydrophthalazine-1,4-dione sodium salt on the germ load of the mice infected with S. pyogenes in blood and liver was tested. The test was completed 48 hours after the infection, and the germ load (CFU) existing at this time in blood and liver was determined (see Table).

[9] = 0.25 g in 10 mL H2O VE, stirring 500 rpm, 25° C., first minutes after addition; sodium salt
Protocol: The complete dissolution of 0.25 g form I or form II, respectively, in 10 mL H2O VE was achieved under stirring (500 rpm) at 25° C.

[10] = 200 μg/mL, not stimulated macrophages (no LPS)
[11] = dose 20 μg, LPS 10 ng/mL, supernatant 24 h
[12] = dose 20 μg, LPS 100 ng/mL, supernatant 24 h
[13] = dose 20 μg, LPS 1 mg/mL, supernatant 24 h
[14] = dose 200 μg, LPS 10 ng/mL, supernatant 24 h
[15] = dose 200 μg, LPS 100 ng/mL, supernatant 24 h
[16] = dose 200 μg, LPS 1 mg/mL, supernatant 24 h

Nc1cccc2c(=O)[nH][nH]c(=O)c12 [Form I, 5-amino-2,3-dihydrophthalazine-1,4-dione sodium salt]
Immunodepressive effect ([1]; 100 ng/5 mL LPS, 200 μg/mL): most distinct | Change of TNF-alpha values ([1]; 1 μg/mL LPS with 200 μg/mL): significant reduction | Effect on not stimulated macrophages by TNF-alpha values ([1]; 200 μg/mL, not stimulated): immunostimulating effect | IL-6 MW [1, 10]: 0.24 ng/mL | TNF-alpha MW [1, 10]: 7.98 ng/mL | Effect in the combination groups with LPS ([1]; all LPS groups): dose-dependent, immunodepressive effect | IL-6 MW [1, 11]: 6.05 ng/mL | TNF-alpha MW [1, 11]: 13.27 ng/mL | IL-6 MW [1, 12]: 19.67 ng/mL | TNF-alpha MW [1, 12]: 27.17 ng/mL | IL-6 MW [1, 13]: 22.67 ng/mL | TNF-alpha MW [1, 13]: 47.91 ng/mL | IL-6 MW [1, 14]: 7.19 ng/mL | TNF-alpha MW [1, 14]: 20.74 ng/mL | IL-6 MW [1, 15]: 10.88 ng/mL | TNF-alpha MW [1, 15]: 16.47 ng/mL | IL-6 MW [1, 16]: 15.95 ng/mL | TNF-alpha MW [1, 16]: 32.53 ng/mL | Transaminases GOT (AST) and GPT (ALT) [2]: Distinct differences between the groups could not be found | Weight loss compared to control groups (S. pyogenes [3]; first 24 hours after the infection): lower weight losses | Weight development/increase Total MW (S. pyogenes [3]; 2 μg): -2.41 g | Weight development/increase Day 1 MW (S. pyogenes [3]; 2 μg): -0.64 g | Weight development/increase Total MW (S. pyogenes [3]; 20 μg): -1.46 g | Weight development/increase Day 1 MW (S. pyogenes [3]; 20 μg): -0.09 g | Weight development/increase Total MW (S. pyogenes [3]; 200 μg): -1.69 g | Weight development/increase Day 1 MW (S. pyogenes [3]; 200 μg): -0.03 g | Weight development/increase Total MW (S. pyogenes [3]; all doses (total)): -1.85 g | Weight development/increase Day 1 MW (S. pyogenes [3]; all doses (total)): -0.25 g | Share of surviving mice (S. pyogenes [4]; 2 μg, sodium salt): 80% | Share of surviving mice (S. pyogenes [4]; 20 μg): 80% | Share of surviving mice (S. pyogenes [4]; 200 μg, sodium salt): 80% | Survival compared to the controls (S. pyogenes [4]): increase of the share of surviving animals | Share of surviving mice (S. pyogenes [4]; all doses (total)): 80% | TNF-alpha MW ([5]; 2 μg, blood after 48 hours, sodium salt): 128.8 pg/mL | TNF-alpha versus control groups and form II groups ([5]; 20 μg dose, p<0.001): significantly different | TNF-alpha MW ([5]; 20 μg, blood after 48 hours, sodium salt): 341.8 pg/mL | TNF-alpha MW ([5]; 200 μg, blood after 48 hours, sodium salt): 154.1 pg/mL | TNF-alpha MW ([5]; all doses (total), blood after 48 hours, sodium salt): 208.2 pg/mL | IL-6 increase ([5]; blood after 48 hours): neither in the substance groups nor in the control groups increases could be found | TNF-alpha increase ([5]; compared to the other groups, sodium salt): distinct increases | Disintegration temperature ([6]; listed as form I): 335 °C | Disintegration temperature [6]: 335 °C ± 10 °C | Time for which the crystalline form is stable ([6]; room temperature (25° C.) and 40° C.): at least two | Solubility (physchem; water, thermodynamic from solid, Solubility): 227 mg/mL | Toxicity judged from weight development [7]: do not have any toxicity or at most a very small one | Weight development/increase MW ([7]; 2 μg per animal and application, parenteral, sodium salt): -0.49 g | Weight development/increase MW ([7]; 20 μg per animal and application, parenteral, sodium salt): 1.48 g | Weight development/increase MW ([7]; 200 μg per animal and application, parenteral, sodium salt): 0.79 g | Weight development/increase MW ([7]; all doses (total)): 0.59 g | Germ load (CFU) Blood MW (S. pyogenes [8]; 2 μg): 7.00 log/mL | Germ load (CFU) Liver MW (S. pyogenes [8]; 2 μg): 6.56 log/g | Germ load (CFU) Blood MW (S. pyogenes [8]; 20 μg): 6.33 log/mL | Germ load (CFU) Liver MW (S. pyogenes [8]; 20 μg): 6.57 log/g | Germ load (CFU) Blood MW (S. pyogenes [8]; 200 μg): 5.77 log/mL | Germ load (CFU) Liver MW (S. pyogenes [8]; 200 μg): 6.09 log/g | Germ load (CFU) Blood MW (S. pyogenes [8]; all doses (total)): 6.37 log/mL | Germ load (CFU) Liver MW (S. pyogenes [8]; all doses (total)): 6.41 log/g | Germ count in the blood compared to the controls (S. pyogenes [8]; highest dose): tendentious germ count reduction | Initial dissolution rate [9]: only retarded reaches its complete equilibrium concentration

Nc1cccc2c(=O)[nH][nH]c(=O)c12 [Dihydrate, 5-amino-2,3-dihydrophthalazine-1,4-dione sodium salt]
Endothermous solid phase transformation ([6]; listed as dihydrate): 85 °C | Endothermous solid phase transformation [6]: 85 °C ± 10 °C | Solubility (physchem; sodium salt): 168 mg/mL
